# Source: the supplement of paper PMC10307832
# Legend:
# Experiment in all cases: relative viability (nuclei count vs DMSO), 5 days (fraction); higher = more cells survive
# [1] = test system: NCI-H2342
# Summary of the method: (§1)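 Each reported value is a median over duplicate plates. It expresses relative viability: treated-well nuclei count divided by vehicle-well nuclei count. Lung cancer cell lines in 1536-well plates were dosed by pin tool a day after seeding, alone with one drug or with a fixed anchor-drug dose plus five library-drug doses (not always all listed) in √10 steps, and nuclei were counted after 5 days.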
# [2] = test system: NCI-H650
# Summary of the method: as §1
# [3] = test system: HCC-366
# Summary of the method: as §1
# [4] = test system: NCI-H2347
# Summary of the method: as §1
# [5] = test system: SW 1573
# Summary of the method: as §1
# [6] = test system: NCI-H2228
# Summary of the method: as §1
# [7] = test system: A-427
# Summary of the method: as §1
# [8] = test system: HCC-827
# Summary of the method: as §1
# [9] = test system: NCI-H1993
# Summary of the method: as §1
# [10] = test system: LC-2-ad
# Summary of the method: as §1
# [11] = test system: NCI-H23
# Summary of the method: as §1
# [12] = test system: NCI-H1755
# Summary of the method: as §1
# [13] = test system: SK-LU-1
# Summary of the method: as §1
# [14] = test system: NCI-H1975
# Summary of the method: as §1
# [15] = test system: RERF-LC-KJ
# Summary of the method: as §1
# [16] = test system: SK-MES-1
# Summary of the method: as §1
# [17] = test system: LCLC-103H
# Summary of the method: as §1
# [18] = test system: NCI-H1355
# Summary of the method: as §1
# [19] = test system: UMC-11
# Summary of the method: as §1
# [20] = test system: NCI-H2170
# Summary of the method: as §1
# [21] = test system: NCI-H1915
# Summary of the method: as §1
# [22] = test system: NCI-H1734
# Summary of the method: as §1
# [23] = test system: NCI-H1792
# Summary of the method: as §1
compound,measurement,setting,value
CN1CCN(CCOc2cc(OC3CCOCC3)c3c(Nc4c(Cl)ccc5c4OCO5)ncnc3c2)CC1 [Saracatinib] + N=C(N)NC(=N)NCCc1ccccc1 [Phenformin] (partner 250 µM),relative viability,[1]; first compound 0.02 µM,0.702
same,relative viability,[1]; first compound 0.2 µM,0.529
same,relative viability,[1]; first compound 0.6325 µM,0.673
same,relative viability,[1]; first compound 2 µM,0.505
same,relative viability,[2]; first compound 0.02 µM,0.465
same,relative viability,[2]; first compound 0.2 µM,0.429
same,relative viability,[2]; first compound 0.6325 µM,0.495
same,relative viability,[2]; first compound 2 µM,0.461
same,relative viability,[3]; first compound 0.02 µM,0.694
same,relative viability,[3]; first compound 0.6325 µM,0.599
same,relative viability,[3]; first compound 2 µM,0.346
same,relative viability,[4]; first compound 0.02 µM,0.38
same,relative viability,[4]; first compound 0.2 µM,0.26
same,relative viability,[4]; first compound 0.6325 µM,0.377
same,relative viability,[4]; first compound 2 µM,0.342
same,relative viability,[5]; first compound 0.02 µM,0.537
same,relative viability,[5]; first compound 0.2 µM,0.382
same,relative viability,[5]; first compound 0.6325 µM,0.313
same,relative viability,[5]; first compound 2 µM,0.313
same,relative viability,[6]; first compound 0.02 µM,0.345
same,relative viability,[6]; first compound 0.2 µM,0.327
same,relative viability,[6]; first compound 0.6325 µM,0.346
same,relative viability,[6]; first compound 2 µM,0.194
same,relative viability,[7]; first compound 0.02 µM,0.352
same,relative viability,[7]; first compound 0.2 µM,0.273
same,relative viability,[7]; first compound 0.6325 µM,0.281
same,relative viability,[7]; first compound 2 µM,0.285
same,relative viability,[8]; first compound 0.02 µM,0.4
same,relative viability,[8]; first compound 0.2 µM,0.221
same,relative viability,[8]; first compound 0.6325 µM,0.134
same,relative viability,[8]; first compound 2 µM,0.144
same,relative viability,[9]; first compound 0.02 µM,0.524
same,relative viability,[9]; first compound 0.2 µM,0.529
same,relative viability,[9]; first compound 0.6325 µM,0.512
same,relative viability,[9]; first compound 2 µM,0.555
same,relative viability,[10]; first compound 0.02 µM,0.588
same,relative viability,[10]; first compound 0.2 µM,0.554
same,relative viability,[10]; first compound 0.6325 µM,0.652
same,relative viability,[10]; first compound 2 µM,0.546
same,relative viability,[11]; first compound 0.02 µM,0.807
same,relative viability,[11]; first compound 0.2 µM,0.631
same,relative viability,[11]; first compound 0.6325 µM,0.917
same,relative viability,[11]; first compound 2 µM,0.739
same,relative viability,[12]; first compound 0.02 µM,0.665
same,relative viability,[12]; first compound 0.2 µM,0.484
same,relative viability,[12]; first compound 0.6325 µM,0.597
same,relative viability,[12]; first compound 2 µM,0.478
same,relative viability,[13]; first compound 0.02 µM,0.474
same,relative viability,[13]; first compound 0.2 µM,0.351
same,relative viability,[13]; first compound 0.6325 µM,0.25
same,relative viability,[13]; first compound 2 µM,0.209
same,relative viability,[14]; first compound 0.02 µM,0.422
same,relative viability,[14]; first compound 0.2 µM,0.348
same,relative viability,[14]; first compound 0.6325 µM,0.387
same,relative viability,[14]; first compound 2 µM,0.32
same,relative viability,[15]; first compound 0.02 µM,0.445
same,relative viability,[15]; first compound 0.2 µM,0.401
same,relative viability,[15]; first compound 0.6325 µM,0.313
same,relative viability,[15]; first compound 2 µM,0.361
same,relative viability,[16]; first compound 0.02 µM,0.65
same,relative viability,[16]; first compound 0.2 µM,0.613
same,relative viability,[16]; first compound 0.6325 µM,0.613
same,relative viability,[16]; first compound 2 µM,0.634
same,relative viability,[17]; first compound 0.02 µM,0.337
same,relative viability,[17]; first compound 0.2 µM,0.354
same,relative viability,[17]; first compound 0.6325 µM,0.37
same,relative viability,[17]; first compound 2 µM,0.314
same,relative viability,[18]; first compound 0.02 µM,0.453
same,relative viability,[18]; first compound 0.2 µM,0.397
same,relative viability,[18]; first compound 0.6325 µM,0.453
same,relative viability,[18]; first compound 2 µM,0.407
same,relative viability,[19]; first compound 0.02 µM,0.341
same,relative viability,[19]; first compound 0.6325 µM,0.32
same,relative viability,[19]; first compound 2 µM,0.232
same,relative viability,[20]; first compound 0.02 µM,0.396
same,relative viability,[20]; first compound 0.2 µM,0.332
same,relative viability,[20]; first compound 0.6325 µM,0.352
same,relative viability,[20]; first compound 2 µM,0.295
same,relative viability,[21]; first compound 0.02 µM,0.374
same,relative viability,[21]; first compound 0.2 µM,0.333
same,relative viability,[21]; first compound 0.6325 µM,0.364
same,relative viability,[21]; first compound 2 µM,0.333
same,relative viability,[22]; first compound 0.02 µM,0.375
same,relative viability,[22]; first compound 0.6325 µM,0.375
same,relative viability,[22]; first compound 2 µM,0.308
same,relative viability,[23]; first compound 0.02 µM,0.258
same,relative viability,[23]; first compound 0.2 µM,0.167
same,relative viability,[23]; first compound 0.6325 µM,0.241
same,relative viability,[23]; first compound 2 µM,0.405
